Test results: ChEMBL document CHEMBL5723584 (2023)

What was measured:
Details in all cases: Compound concentration 1.0 uM
[1] = biological target: Serine/threonine-protein kinase WNK3 (Homo sapiens) (UniProt Q9BYP7); assay: activity of WNK3(h) at 1.0 µM in the Eurofins Kinase panel
[2] = biological target: Casein kinase I isoform alpha (Homo sapiens) (UniProt P48729); assay: activity of CK1alpha(h) at 1.0 µM in the Eurofins Kinase panel
[3] = biological target: Tyrosine-protein kinase Yes (Homo sapiens) (UniProt P07947); assay: activity of Yes(h) at 1.0 µM in the Eurofins Kinase panel
[4] = biological target: MAPK/MAK/MRK overlapping kinase (Homo sapiens) (UniProt Q9UQ07); assay: activity of MOK(h) at 1.0 µM in the Eurofins Kinase panel
[5] = biological target: Serine/threonine-protein kinase 33 (Homo sapiens) (UniProt Q9BYT3); assay: activity of STK33(h) at 1.0 µM in the Eurofins Kinase panel
[6] = biological target: cAMP-dependent protein kinase (PKA) (Homo sapiens) (UniProt P22694+P17612+P22612); assay: activity of PKA(h) at 1.0 µM in the Eurofins Kinase panel; assay type: protein assay
[7] = biological target: Leukocyte tyrosine kinase receptor (Homo sapiens) (UniProt P29376); assay: activity of LTK(h) at 1.0 µM in the Eurofins Kinase panel
[8] = biological target: Dual specificity mitogen-activated protein kinase kinase 1 (Homo sapiens) (UniProt Q02750); assay: activity of MEK1(h) at 1.0 µM in the Eurofins Kinase panel
[9] = biological target: Aurora kinase C (Homo sapiens) (UniProt Q9UQB9); assay: activity of Aurora-C(h) at 1.0 µM in the Eurofins Kinase panel
[10] = biological target: Serine/threonine-protein kinase PAK 3 (Homo sapiens) (UniProt O75914); assay: activity of PAK3(h) at 1.0 µM in the Eurofins Kinase panel
[11] = biological target: Phosphorylase b kinase gamma catalytic chain, skeletal muscle/heart isoform (Homo sapiens) (UniProt Q16816); assay: activity of PhKgamma1(h) at 1.0 µM in the Eurofins Kinase panel
[12] = biological target: Tyrosine-protein kinase ABL2 (Homo sapiens) (UniProt P42684); assay: activity of Arg(h) at 1.0 µM in the Eurofins Kinase panel
[13] = biological target: Serine/threonine-protein kinase mTOR (Homo sapiens) (UniProt P42345); assay: activity of mTOR(h) at 1.0 µM in the Eurofins Kinase panel
[14] = biological target: Ribosomal protein S6 kinase alpha-4 (Homo sapiens) (UniProt O75676); assay: activity of MSK2(h) at 1.0 µM in the Eurofins Kinase panel
[15] = biological target: Serine/threonine-protein kinase PAK 6 (Homo sapiens) (UniProt Q9NQU5); assay: activity of PAK6(h) at 1.0 µM in the Eurofins Kinase panel
[16] = biological target: Activin receptor type-1 (Homo sapiens) (UniProt Q04771); assay: activity of ALK2(h) at 1.0 µM in the Eurofins Kinase panel
[17] = biological target: Receptor tyrosine-protein kinase erbB-2 (Homo sapiens) (UniProt P04626); assay: activity of ErbB2(h) at 1.0 µM in the Eurofins Kinase panel
[18] = biological target: Dual specificity tyrosine-phosphorylation-regulated kinase 2 (Homo sapiens) (UniProt Q92630); assay: activity of DYRK2(h) at 1.0 µM in the Eurofins Kinase panel
[19] = biological target: Platelet-derived growth factor receptor beta (Homo sapiens) (UniProt P09619); assay: activity of PDGFRbeta(h) at 1.0 µM in the Eurofins Kinase panel
[20] = biological target: Inhibitor of nuclear factor kappa-B kinase subunit beta (Homo sapiens) (UniProt O14920); assay: activity of IKKbeta(h) at 1.0 µM in the Eurofins Kinase panel
[21] = biological target: Transient receptor potential cation channel subfamily M member 7 (Homo sapiens) (UniProt Q96QT4); assay: activity of ChaK1(h) at 1.0 µM in the Eurofins Kinase panel
[22] = biological target: Insulin receptor (Homo sapiens) (UniProt P06213); assay: activity of IR(h) at 1.0 µM in the Eurofins Kinase panel
[23] = biological target: Calcium/calmodulin-dependent protein kinase type 1G (Homo sapiens) (UniProt Q96NX5); assay: activity of CaMKIgamma(h) at 1.0 µM in the Eurofins Kinase panel
[24] = biological target: Receptor tyrosine-protein kinase erbB-4 (Homo sapiens) (UniProt Q15303); assay: activity of ErbB4(h) at 1.0 µM in the Eurofins Kinase panel
[25] = biological target: Calcium/calmodulin-dependent protein kinase type 1B (Homo sapiens) (UniProt Q6P2M8); assay: activity of CaMKIbeta(h) at 1.0 µM in the Eurofins Kinase panel
[26] = biological target: Serine/threonine-protein kinase TAO3 (Homo sapiens) (UniProt Q9H2K8); assay: activity of TAO3(h) at 1.0 µM in the Eurofins Kinase panel
[27] = biological target: Myosin light chain kinase (Homo sapiens) (UniProt Q32MK0); assay: activity of MLCK(h) at 1.0 µM in the Eurofins Kinase panel
[28] = biological target: Proto-oncogene tyrosine-protein kinase receptor Ret (Homo sapiens) (UniProt P07949); assay: activity of Ret(h) at 1.0 µM in the Eurofins Kinase panel
[29] = biological target: Tyrosine-protein kinase receptor UFO (Homo sapiens) (UniProt P30530); assay: activity of Axl(h) at 1.0 µM in the Eurofins Kinase panel
[30] = biological target: Serine/threonine-protein kinase Nek11 (Homo sapiens) (UniProt Q8NG66); assay: activity of NEK11(h) at 1.0 µM in the Eurofins Kinase panel
[31] = biological target: Tyrosine-protein kinase ZAP-70 (Homo sapiens) (UniProt P43403); assay: activity of ZAP-70(h) at 1.0 µM in the Eurofins Kinase panel
[32] = biological target: Phosphatidylinositol 4-phosphate 5-kinase type-1 alpha (Homo sapiens) (UniProt Q99755); assay: activity of PIP5K1alpha(h) at 1.0 µM in the Eurofins Kinase panel
[33] = biological target: Serine/threonine-protein kinase ICK (Homo sapiens) (UniProt Q9UPZ9); assay: activity of ICK(h) at 1.0 µM in the Eurofins Kinase panel
[34] = biological target: Serine/threonine-protein kinase SIK2 (Homo sapiens) (UniProt Q9H0K1); assay: activity of SIK2(h) at 1.0 µM in the Eurofins Kinase panel
[35] = biological target: Serine/threonine-protein kinase PLK1 (Homo sapiens) (UniProt P53350); assay: activity of Plk1(h) at 1.0 µM in the Eurofins Kinase panel
[36] = biological target: Tyrosine-protein kinase Tec (Homo sapiens) (UniProt P42680); assay: activity of Tec(h) activated at 1.0 µM in the Eurofins Kinase panel
[37] = biological target: Tyrosine-protein kinase TXK (Homo sapiens) (UniProt P42681); assay: activity of Txk(h) at 1.0 µM in the Eurofins Kinase panel
[38] = biological target: Dual specificity protein kinase CLK4 (Homo sapiens) (UniProt Q9HAZ1); assay: activity of CLK4(h) at 1.0 µM in the Eurofins Kinase panel
[39] = biological target: Myotonin-protein kinase (Homo sapiens) (UniProt Q09013); assay: activity of DMPK(h) at 1.0 µM in the Eurofins Kinase panel

Receptor tyrosine-protein kinase erbB-2 (Homo sapiens), sequence (P04626 whole entry): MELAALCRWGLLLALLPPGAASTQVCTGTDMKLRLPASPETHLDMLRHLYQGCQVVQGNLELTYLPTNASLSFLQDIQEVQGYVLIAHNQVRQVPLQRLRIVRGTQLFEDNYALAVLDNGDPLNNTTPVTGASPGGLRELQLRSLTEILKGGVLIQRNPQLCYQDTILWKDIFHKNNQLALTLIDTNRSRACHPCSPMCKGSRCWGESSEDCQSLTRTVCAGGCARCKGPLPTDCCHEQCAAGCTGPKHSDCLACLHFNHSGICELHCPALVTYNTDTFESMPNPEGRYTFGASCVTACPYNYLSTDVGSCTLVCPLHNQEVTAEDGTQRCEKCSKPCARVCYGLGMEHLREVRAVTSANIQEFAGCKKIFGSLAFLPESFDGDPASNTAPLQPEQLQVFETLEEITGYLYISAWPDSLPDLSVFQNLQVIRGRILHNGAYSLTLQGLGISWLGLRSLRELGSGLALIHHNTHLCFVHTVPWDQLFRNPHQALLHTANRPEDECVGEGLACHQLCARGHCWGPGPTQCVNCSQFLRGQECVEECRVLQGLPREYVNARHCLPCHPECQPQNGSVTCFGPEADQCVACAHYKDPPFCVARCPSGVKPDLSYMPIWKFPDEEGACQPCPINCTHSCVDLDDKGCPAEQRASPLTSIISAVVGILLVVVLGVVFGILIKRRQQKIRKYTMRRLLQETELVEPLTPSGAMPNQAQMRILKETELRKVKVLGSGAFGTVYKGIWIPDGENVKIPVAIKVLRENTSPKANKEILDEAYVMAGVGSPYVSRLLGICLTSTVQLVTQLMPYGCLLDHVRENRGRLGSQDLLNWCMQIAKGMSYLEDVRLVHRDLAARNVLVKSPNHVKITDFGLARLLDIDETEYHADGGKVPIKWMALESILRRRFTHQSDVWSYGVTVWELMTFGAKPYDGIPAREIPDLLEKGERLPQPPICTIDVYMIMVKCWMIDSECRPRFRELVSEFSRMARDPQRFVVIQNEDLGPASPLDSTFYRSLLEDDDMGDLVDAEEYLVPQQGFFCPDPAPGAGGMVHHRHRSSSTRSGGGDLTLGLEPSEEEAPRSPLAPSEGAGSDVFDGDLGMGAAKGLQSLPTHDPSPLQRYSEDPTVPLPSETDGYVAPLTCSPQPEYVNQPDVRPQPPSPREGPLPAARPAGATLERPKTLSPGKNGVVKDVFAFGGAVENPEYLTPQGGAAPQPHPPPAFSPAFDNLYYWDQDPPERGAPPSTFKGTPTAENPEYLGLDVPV
Tyrosine-protein kinase ABL2 (Homo sapiens), sequence (P42684 whole entry): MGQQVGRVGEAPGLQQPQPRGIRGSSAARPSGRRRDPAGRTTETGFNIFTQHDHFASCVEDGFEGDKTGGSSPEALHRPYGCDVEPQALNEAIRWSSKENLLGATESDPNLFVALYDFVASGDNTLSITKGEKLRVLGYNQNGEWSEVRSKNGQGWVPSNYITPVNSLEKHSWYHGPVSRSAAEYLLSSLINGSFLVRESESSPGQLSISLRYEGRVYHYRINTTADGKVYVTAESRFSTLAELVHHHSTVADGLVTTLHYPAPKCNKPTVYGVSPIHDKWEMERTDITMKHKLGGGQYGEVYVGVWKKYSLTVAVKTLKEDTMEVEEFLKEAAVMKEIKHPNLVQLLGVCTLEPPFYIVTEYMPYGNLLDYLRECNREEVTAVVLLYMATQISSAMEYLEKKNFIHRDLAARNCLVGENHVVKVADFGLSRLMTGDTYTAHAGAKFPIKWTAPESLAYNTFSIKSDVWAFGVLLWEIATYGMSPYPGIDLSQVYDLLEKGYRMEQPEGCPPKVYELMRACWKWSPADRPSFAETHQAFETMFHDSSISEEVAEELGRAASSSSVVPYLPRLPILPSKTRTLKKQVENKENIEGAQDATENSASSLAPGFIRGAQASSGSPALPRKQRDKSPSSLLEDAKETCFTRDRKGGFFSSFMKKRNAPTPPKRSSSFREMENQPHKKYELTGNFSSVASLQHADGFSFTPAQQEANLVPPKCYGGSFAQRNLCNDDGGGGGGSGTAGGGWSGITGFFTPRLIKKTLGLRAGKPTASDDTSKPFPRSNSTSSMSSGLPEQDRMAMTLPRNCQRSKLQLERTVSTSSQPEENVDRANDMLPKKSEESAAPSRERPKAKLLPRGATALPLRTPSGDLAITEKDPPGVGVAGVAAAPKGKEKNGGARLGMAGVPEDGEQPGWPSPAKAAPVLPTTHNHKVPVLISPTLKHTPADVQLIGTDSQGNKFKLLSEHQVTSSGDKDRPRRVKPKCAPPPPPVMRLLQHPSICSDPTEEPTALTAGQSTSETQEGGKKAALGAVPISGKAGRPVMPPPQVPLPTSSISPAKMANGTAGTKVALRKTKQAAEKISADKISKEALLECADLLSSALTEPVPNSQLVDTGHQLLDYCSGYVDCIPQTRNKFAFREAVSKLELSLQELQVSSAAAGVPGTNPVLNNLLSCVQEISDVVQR
Dual specificity tyrosine-phosphorylation-regulated kinase 2 (Homo sapiens), sequence (Q92630 whole entry): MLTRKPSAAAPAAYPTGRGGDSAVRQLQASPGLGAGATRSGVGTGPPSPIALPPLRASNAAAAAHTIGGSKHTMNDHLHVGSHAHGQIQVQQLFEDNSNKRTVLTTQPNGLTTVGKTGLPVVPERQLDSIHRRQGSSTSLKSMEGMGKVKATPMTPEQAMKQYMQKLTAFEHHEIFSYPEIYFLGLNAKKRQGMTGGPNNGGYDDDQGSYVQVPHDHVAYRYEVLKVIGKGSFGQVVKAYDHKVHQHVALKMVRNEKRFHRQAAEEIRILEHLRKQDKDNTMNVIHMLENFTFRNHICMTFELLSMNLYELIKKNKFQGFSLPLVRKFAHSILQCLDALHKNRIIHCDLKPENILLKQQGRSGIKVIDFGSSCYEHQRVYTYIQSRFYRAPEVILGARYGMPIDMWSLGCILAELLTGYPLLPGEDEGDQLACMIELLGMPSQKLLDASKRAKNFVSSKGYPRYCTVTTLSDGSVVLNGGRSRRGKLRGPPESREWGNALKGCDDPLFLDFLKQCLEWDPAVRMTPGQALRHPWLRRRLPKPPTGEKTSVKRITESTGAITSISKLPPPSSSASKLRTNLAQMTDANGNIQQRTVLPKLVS
Dual specificity protein kinase CLK4 (Homo sapiens), sequence (Q9HAZ1 whole entry, looked up): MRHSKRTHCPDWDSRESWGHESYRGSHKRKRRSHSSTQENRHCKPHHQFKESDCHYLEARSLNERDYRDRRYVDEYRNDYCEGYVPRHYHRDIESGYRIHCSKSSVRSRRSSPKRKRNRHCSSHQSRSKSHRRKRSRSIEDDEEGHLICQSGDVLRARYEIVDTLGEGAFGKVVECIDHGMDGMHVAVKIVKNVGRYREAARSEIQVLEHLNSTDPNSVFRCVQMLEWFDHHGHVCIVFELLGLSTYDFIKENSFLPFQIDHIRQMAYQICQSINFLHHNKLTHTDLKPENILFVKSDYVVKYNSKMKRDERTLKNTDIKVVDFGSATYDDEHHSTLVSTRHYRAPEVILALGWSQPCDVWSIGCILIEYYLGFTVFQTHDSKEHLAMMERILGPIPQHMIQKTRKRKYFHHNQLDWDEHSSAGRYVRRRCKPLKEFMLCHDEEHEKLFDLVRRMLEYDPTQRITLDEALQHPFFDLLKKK
Tyrosine-protein kinase Yes (Homo sapiens), sequence (P07947 2-543 limits assumed): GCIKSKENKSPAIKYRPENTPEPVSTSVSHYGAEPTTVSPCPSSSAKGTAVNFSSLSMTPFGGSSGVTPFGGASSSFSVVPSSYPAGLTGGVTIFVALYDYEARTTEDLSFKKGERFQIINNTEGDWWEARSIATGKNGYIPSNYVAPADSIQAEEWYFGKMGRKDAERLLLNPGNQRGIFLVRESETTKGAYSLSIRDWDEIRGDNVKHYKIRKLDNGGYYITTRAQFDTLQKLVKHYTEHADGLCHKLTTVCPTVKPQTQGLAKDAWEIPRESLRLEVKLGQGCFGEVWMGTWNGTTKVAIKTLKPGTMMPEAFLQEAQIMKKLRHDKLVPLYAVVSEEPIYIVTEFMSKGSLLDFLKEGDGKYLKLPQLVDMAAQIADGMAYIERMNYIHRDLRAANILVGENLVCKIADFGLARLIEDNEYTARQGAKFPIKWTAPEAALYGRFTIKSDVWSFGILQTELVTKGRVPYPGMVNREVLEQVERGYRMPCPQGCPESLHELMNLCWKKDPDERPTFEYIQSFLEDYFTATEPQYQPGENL
Phosphatidylinositol 4-phosphate 5-kinase type-1 alpha (Homo sapiens), sequence (Q99755 whole entry): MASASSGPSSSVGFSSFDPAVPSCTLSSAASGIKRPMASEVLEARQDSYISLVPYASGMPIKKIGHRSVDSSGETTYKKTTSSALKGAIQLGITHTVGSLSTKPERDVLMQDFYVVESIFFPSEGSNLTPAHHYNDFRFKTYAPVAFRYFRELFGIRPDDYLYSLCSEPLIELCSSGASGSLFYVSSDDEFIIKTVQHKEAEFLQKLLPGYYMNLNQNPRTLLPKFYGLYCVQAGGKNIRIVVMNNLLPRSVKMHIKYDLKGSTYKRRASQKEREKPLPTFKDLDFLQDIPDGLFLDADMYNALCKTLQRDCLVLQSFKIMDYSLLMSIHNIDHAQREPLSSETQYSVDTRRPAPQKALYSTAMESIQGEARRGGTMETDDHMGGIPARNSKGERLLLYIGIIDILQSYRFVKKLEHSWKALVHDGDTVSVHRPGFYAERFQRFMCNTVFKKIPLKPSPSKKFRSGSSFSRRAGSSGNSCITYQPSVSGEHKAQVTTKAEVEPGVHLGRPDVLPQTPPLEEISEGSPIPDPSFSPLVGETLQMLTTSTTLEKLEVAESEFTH
Dual specificity mitogen-activated protein kinase kinase 1 (Homo sapiens), sequence (Q02750 whole entry): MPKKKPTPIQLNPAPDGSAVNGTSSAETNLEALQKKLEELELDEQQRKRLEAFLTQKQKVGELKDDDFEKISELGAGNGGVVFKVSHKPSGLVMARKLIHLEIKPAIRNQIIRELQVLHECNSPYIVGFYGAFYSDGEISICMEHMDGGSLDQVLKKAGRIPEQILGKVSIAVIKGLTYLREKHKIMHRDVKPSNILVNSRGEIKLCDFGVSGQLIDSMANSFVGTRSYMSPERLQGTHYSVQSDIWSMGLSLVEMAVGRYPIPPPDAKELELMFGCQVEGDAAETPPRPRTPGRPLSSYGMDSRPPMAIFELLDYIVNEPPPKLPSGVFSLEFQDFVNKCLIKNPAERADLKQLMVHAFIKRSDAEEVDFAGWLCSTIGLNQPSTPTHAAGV

Molecule `Cc1cc2c(-c3ccc(NC(=O)[C@H](N)CC(C)(C)C)cc3C)ccnc2[nH]1` has an activity [1] of 85%, an activity [2] of 97% and an activity [3] of 87%. It also gave an activity [4] of 90%, an activity [5] of 98% and an activity [6] of 109%. For the same molecule, the activity [7] was 97%, the activity [8] was 101% and the activity [9] was 94%. The activity [10] was 89%, the activity [11] was 101% and the activity [12] was 72%. It also gave an activity [13] of 95%, an activity [14] of 88% and an activity [15] of 101%. It also gave an activity [16] of 122%, an activity [17] of 97% and an activity [18] of 101%. It also gave an activity [19] of 105%, an activity [20] of 99% and an activity [21] of 106%. It also gave an activity [22] of 94%, an activity [23] of 110% and an activity [24] of 94%. For the same molecule, the activity [25] was 85%, the activity [26] was 100% and the activity [27] was 98%. For the same molecule, the activity [28] was 97%, the activity [29] was 91% and the activity [30] was 97%. For the same molecule, the activity [31] was 71%, the activity [32] was 103% and the activity [33] was 99%. For the same molecule, the activity [34] was 109%, the activity [35] was 111% and the activity [36] was 126%. For the same molecule, the activity [37] was 110%, the activity [38] was 85% and the activity [39] was 93%.
